Source: article PMC7215373, “Design, Synthesis, and Anticancer Evaluation of Novel Indole Derivatives of Ursolic Acid as Potential Topoisomerase II Inhibitors” (International Journal of Molecular Sciences, 2020)

How the values were obtained:
LO2 cells = test: MTT cytotoxicity assay, normal hepatocyte LO2; type: cell-based; conditions: Homo sapiens, L02, 48 h exposure, normal hepatocyte cell line
Procedure: The in vitro cytotoxic activities of synthesized compounds were evaluated against two human hepatocarcinoma cell lines (SMMC-7721 and HepG2) and the human normal hepatocyte cell line (LO2) via MTT assay. All tested compounds were dissolved in DMSO and the stock solutions were diluted by DMEM medium before treatment of the cultured cells. […] Cell lines were obtained from American Tissue Culture Collection (ATCC). Briefly, different tumor cells were grown in DMEM medium supplemented with 10% fetal bovine serum, penicillin (100 U/mL), and streptomycin (50 μg/mL). Cells were harvested at log phase of growth and seeded in 96-well plates (100 μL/well at a density of 2 × 10^5 cells/mL). After 24 h incubation at 37 °C and 5% CO2 to allow cell attachment, cultures were exposed to various concentrations of the isolated compounds for 48 h. Finally, MTT solution (2.5 mg/mL in PBS) was added (40 μL/well). Plates were further incubated for 4 h at 37 °C, and the formazan crystals formed were dissolved by adding 150 μL/well of DMSO. Absorption at 570 nm was measured with an ELISA plate reader. […] Doxorubicin, camptothecin, and etoposide (VP-16) were co-assayed as positive controls.

DNA topoisomerase I = molecular target: T1, DNA topoisomerase I (Bos taurus, UniProt F1MN93); test: Topoisomerase I relaxation assay (supercoiled pBR322); type: biochemical; conditions: 100 μM compound; read-out: Topo I Inhibition (%) 100 μM
T1 construct: purchased TaKaRa, Kyoto, Japan
T1 sequence (F1MN93 1-767): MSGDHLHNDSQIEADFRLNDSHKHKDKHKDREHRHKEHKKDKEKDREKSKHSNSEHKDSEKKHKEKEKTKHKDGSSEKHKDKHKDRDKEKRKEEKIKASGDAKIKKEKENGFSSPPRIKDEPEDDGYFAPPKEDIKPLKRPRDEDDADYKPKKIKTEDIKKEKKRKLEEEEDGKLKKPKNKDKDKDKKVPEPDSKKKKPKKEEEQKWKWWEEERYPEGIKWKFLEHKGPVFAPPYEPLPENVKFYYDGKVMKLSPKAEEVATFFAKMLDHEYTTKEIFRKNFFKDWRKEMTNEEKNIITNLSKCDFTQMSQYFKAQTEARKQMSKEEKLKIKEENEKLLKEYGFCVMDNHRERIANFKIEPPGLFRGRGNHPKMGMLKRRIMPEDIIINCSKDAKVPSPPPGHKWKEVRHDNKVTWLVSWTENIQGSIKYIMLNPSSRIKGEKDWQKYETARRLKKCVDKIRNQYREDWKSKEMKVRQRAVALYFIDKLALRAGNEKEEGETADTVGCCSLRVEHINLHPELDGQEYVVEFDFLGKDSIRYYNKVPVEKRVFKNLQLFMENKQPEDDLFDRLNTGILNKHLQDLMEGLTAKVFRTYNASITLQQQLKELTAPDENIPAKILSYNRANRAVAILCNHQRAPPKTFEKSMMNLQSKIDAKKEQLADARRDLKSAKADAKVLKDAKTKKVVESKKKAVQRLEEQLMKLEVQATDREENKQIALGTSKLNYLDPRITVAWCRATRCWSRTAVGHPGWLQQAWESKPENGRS
Procedure: The effect of the tested compounds on Topo I and II activities were evaluated by Topo I/II relaxation assays. The reaction products, relaxed DNA could be distinguished from supercoiled DNA by gel electrophoresis and visualized using gel imaging system. The activity of DNA topoisomerase I (TaKaRa, Kyoto, Japan) was determined by measuring the relaxation of supercoiled DNA pBR322 [32]. Camptothecin was used as a positive control. The reaction mixture was prepared according to the manufacture's protocol, and incubated at 37 °C for 30 min. The reactions were terminated by adding dye solution containing 1% SDS, 0.02% bromophenol blue and 50% glycerol. The mixtures were applied to 1% agarose gel and subjected to electrophoresis for 1 h, in 1× TAE buffer (40 mM Tris-acetate, 1 mM EDTA). Gels were stained for 30 min in 60 mL 1× TAE buffer with ethidium bromide (0.5 μg/mL). DNA bands were visualized by transillumination with UV light and then photographed by a Gel Doc XR+ System (BIO-RAD, Hercules, CA, USA).

SMMC-7721 cells = test: JC-1 mitochondrial membrane potential assay; type: cell-based, human; conditions: 24 h, control 1.29%
Procedure: It has been widely believed that intracellular ROS accumulation could decrease mitochondrial membrane potential (ΔΨm), which is a characteristic phenomenon of early apoptosis. To investigate the correlation between ΔΨm and apoptosis induced by compound 5f, the measurement of cells with decreased ΔΨm were carried out by JC-1 assay kit on the instructions of the manual.
The JC-1 mitochondrial membrane potential assay kit (Keygene Biotech., Nanjing, China) was employed to measure mitochondrial depolarization in SMMC-7721 cells. The fluorescence probe JC-1 was used to detect the change of mitochondrial membrane potential. Briefly, cells cultured in six-well plates after indicated treatments by compound 5f were incubated with an equal volume of JC-1 staining solution (5 μg/mL) at 37 °C for 20 min and rinsed twice with PBS. Mitochondrial membrane potentials were monitored by determining the relative amounts of dual emissions from mitochondrial JC-1 monomers or aggregates using flow cytometry (Becton-Dickinson FACSCalibur, Franklin Lakes, NJ, USA). Mitochondrial membrane depolarization is indicated by an increase in the percentage of cells with low ΔΨm (green fluorescence, lower right quadrant) compared with cells with high ΔΨm (red fluorescence, upper right quadrant).

inhibition at 100 µM (DNA topoisomerase I): 0%
SMILES: Cc1ccc2[nH]c3c(c2c1)C[C@@]1(C)C(CC[C@]2(C)C1CC=C1C4[C@@H](C)[C@H](C)CC[C@]4(C(=O)NCCCN4CCN(C)CC4)CC[C@]12C)C3(C)C (some centres unmarked) [5f, N-(3-(4-Methylpiperazin-1-yl)propyl)-5′-methyl-1′H-ursa-2,12-dieno[3,2-b]indol-28-carboxamide]
IC50 (LO2 cells): 10.6 ± 0.52 µM
percentage of cells with low ΔΨm (SMMC-7721 cells; 0.3 μM): 7.43%
percentage of cells with low ΔΨm (SMMC-7721 cells; 0.6 μM): 16.28%
percentage of cells with low ΔΨm (SMMC-7721 cells; 1.2 μM): 32.34%
